Results taken from ChEMBL document CHEMBL5244218, “Quinolone derivatives and their activities against methicillin-resistant Staphylococcus aureus (MRSA)” (Eur J Med Chem, 2018).
≈ marks a conversion by molar mass, not a printed value.

Each molecule was assayed on Staphylococcus aureus (assay: Antimicrobial activity against methicillin-resistant Staphylococcus aureus assessed as inhibition of microbial growth).
Type: functional
`COc1ccc(C2=CN3c4c(c(=O)c(C(=O)O)cn4C4CC4)C=C(F)C3N=N2)cc1OC` (stereo unspecified) gave an MIC of 0.25 µg/mL.
With `Cc1ccc(C2=CN3c4c(c(=O)c(C(=O)O)cn4C4CC4)C=C(F)C3N=N2)cc1` (stereo unspecified) the MIC was 0.25 µg/mL.
Molecule `O=C(O)c1c[nH]c2cc(N3CCN([C@@H]4O[C@H](CO)[C@@H](O)[C@H](O)[C@H]4O)CC3)c(F)cc2c1=O` has an MIC of 0.5 µg/mL.
Work on `Cc1ccccc1C1=CN2c3c(c(=O)c(C(=O)O)cn3C3CC3)C=C(F)C2N=N1` (stereo unspecified) yielded an MIC of 0.25 µg/mL.
`O=C(O)c1cn(C2CC2)c2c(c1=O)C=C(F)C1N=NC(c3ccc(O)cc3)=CN21` (stereo unspecified) was tested, and the MIC was 0.25 µg/mL.
In the case of `COc1ccc(C2=CN3c4c(c(=O)c(C(=O)O)cn4C4CC4)C=C(F)C3N=N2)cc1` (stereo unspecified), the MIC is reported as 0.25 µg/mL.
With `O=C(O)c1cn(C2CC2)c2c(c1=O)C=C(F)C1N=NC(c3ccc(Cl)cc3)=CN21` (stereo unspecified) the MIC was 0.25 µg/mL.
`O=C(O)c1cn(C2CC2)c2c(c1=O)C=C(F)C1N=NC(c3cccc([N+](=O)[O-])c3)=CN21` (stereo unspecified) gave an MIC of 0.25 µg/mL.

Each molecule was assayed on Staphylococcus aureus (assay: Antimicrobial activity against methicillin-resistant Staphylococcus aureus isolates by agar dilution method).
Type: functional
Work on `CCOC(=O)c1ccc(NC2CN(c3c(F)cc4c(=O)c(C(=O)O)cn(C5CC5)c4c3F)C2)cc1` yielded an MIC of 0.016 µg/mL (≈ 0.0331 µM).
`Cc1ccc(NC2CN(c3c(F)cc4c(=O)c(C(=O)O)cn(C5CC5)c4c3F)C2)cc1` showed an MIC of 0.016 µg/mL (≈ 0.0376 µM).
`O=C(O)c1cn(C2CC2)c2c(F)c(N3CC(Nc4ccc(Cl)cc4)C3)c(F)cc2c1=O` gave an MIC of 0.016 µg/mL (≈ 0.0359 µM).
For `COc1ccc(NC2CN(c3c(F)cc4c(=O)c(C(=O)O)cn(C5CC5)c4c3F)C2)cc1`, the MIC was 0.16 µg/mL (≈ 0.362 µM).
`O=C(O)c1cn(C2CC2)c2c(F)c(N3CC(N(Cc4ccccc4)Cc4ccccc4)C3)c(F)cc2c1=O` gave an MIC of 0.016 µg/mL (≈ 0.031 µM).
Molecule `O=C(O)c1cn(C2CC2)c2c(F)c(N3CC(Nc4ccccc4)C3)c(F)cc2c1=O` has an MIC of 0.016 µg/mL (≈ 0.0389 µM).

The molecules below were run on Staphylococcus aureus (assay: Antimicrobial activity against methicillin-resistant Staphylococcus aureus).
Type: functional, organism-based
`CCO/N=C1\CCN(c2nc3c(cc2F)c(=O)c(C(=O)O)cn3C2CC2)CC1(C)CN` (stereo unspecified) showed an MIC of 8 µg/mL (≈ 18.5 µM).
`CCO/N=C1\CCN(c2c(F)cc3c(=O)c(C(=O)O)cn(C4CC4)c3c2F)CC1(C)CN` (stereo unspecified) showed an MIC of 8 µg/mL (≈ 17.8 µM).
Molecule `COc1c2c(cc(F)c1N1C[C@H]3CCCN(C[C@@H](O)Cn4cc([N+](=O)[O-])nc4C)[C@H]3C1)C(=O)C(C(=O)O)=CC2C1CC1` (stereo partly specified) has an MIC of 2 µg/mL (≈ 3.43 µM).
`COc1cc(=O)n(C)c2ccccc12` gave an IC50 of 8 µM.

The molecules below were run on Staphylococcus aureus (assay: Antibacterial activity against methicillin-resistant Staphylococcus aureus assessed as inhibition of microbial growth).
Type: functional
For `CNCC1CN(c2ccc3c(=O)c(C(=O)O)cn(C4CC4)c3c2)CC1(C)C` (stereo unspecified), the MIC was 0.015 µg/mL.
With `CC(=O)c1c(N2CC(CN)C(C)(C)C2)cc(N)c2c(=O)c(C(=O)O)cn(C3CC3)c12` (stereo unspecified) the MIC was 0.015 µg/mL.
In the case of `CNCC1CN(c2ccc3c(=O)c(C(=O)O)cn(-c4ccc(F)cc4F)c3n2)CC1(C)C` (stereo unspecified), the MIC is reported as 0.015 µg/mL.
In the case of `CC1(C)CN(c2ccc3c(=O)c(C(=O)O)cn(C4CC4)c3c2)CC1CN` (stereo unspecified), the MIC is reported as 0.015 µg/mL.
With `CC1(C)CN(c2ccc3c(=O)c(C(=O)O)cn(C4CC4)c3n2)CC1CN` (stereo unspecified) the MIC was 0.015 µg/mL.
For `CNCC1CN(c2ccc3c(=O)c(C(=O)O)cn(C4CC4)c3n2)CC1(C)C` (stereo unspecified), the MIC was 0.015 µg/mL.
For `CNCC1CN(c2cc(N)c3c(=O)c(C(=O)O)cn(C4CC4)c3c2C(C)=O)CC1(C)C` (stereo unspecified), the MIC was 0.015 µg/mL.
Work on `CNCC1CN(c2ccc3c(=O)c(C(=O)O)cn(C4CC4)c3c2C(C)=O)CC1(C)C` (stereo unspecified) yielded an MIC of 0.015 µg/mL.
With `CC1(C)CN(c2ccc3c(=O)c(C(=O)O)cn(-c4ccc(F)cc4F)c3n2)CC1CN` (stereo unspecified) the MIC was 0.015 µg/mL.
`CC(=O)c1c(N2CC(CN)C(C)(C)C2)ccc2c(=O)c(C(=O)O)cn(C3CC3)c12` (stereo unspecified) was tested, and the MIC was 0.015 µg/mL.

These molecules were tested on Staphylococcus aureus (assay: Antimicrobial activity against methicillin-resistant Staphylococcus aureus incubated for 18 hrs by Alamar blue staining based analysis).
Type: functional
Molecule `COc1cccc(O/N=C2/CCN(c3c(F)cc4c(=O)c(C(=O)O)cn(C5CC5)c4c3OC)CC2N)c1OC` (stereo unspecified) has an MIC of 0.008 µg/mL (≈ 0.0148 µM).
With `COc1ccc(O/N=C2/CCN(c3c(F)cc4c(=O)c(C(=O)O)cn(C5CC5)c4c3OC)CC2N)cc1` (stereo unspecified) the MIC was 0.008 µg/mL (≈ 0.0157 µM).
In the case of `COc1c(N2CC/C(=N/Oc3ccccc3)C(N)C2)c(F)cc2c(=O)c(C(=O)O)cn(C3CC3)c12` (stereo unspecified), the MIC is reported as 0.008 µg/mL (≈ 0.0166 µM).
Molecule `CNC1CCCN(c2c(F)cc3c(=O)c(C(=O)O)cn(C4CC4)c3c2OC)C1` (stereo unspecified) [BALOFLOXACIN] has an MIC of 4 µg/mL (≈ 10.3 µM).
`COc1cc(Br)ccc1O/N=C1/CCN(c2c(F)cc3c(=O)c(C(=O)O)cn(C4CC4)c3c2OC)CC1N` (stereo unspecified) was tested, and the MIC was 0.008 µg/mL (≈ 0.0136 µM).
`COc1c(N2CC/C(=N/Oc3ccc(C)c(C)c3)C(N)C2)c(F)cc2c(=O)c(C(=O)O)cn(C3CC3)c12` (stereo unspecified) gave an MIC of 0.008 µg/mL (≈ 0.0157 µM).
In the case of `COc1ccc(OC)c(O/N=C2/CCN(c3c(F)cc4c(=O)c(C(=O)O)cn(C5CC5)c4c3OC)CC2N)c1` (stereo unspecified), the MIC is reported as 0.008 µg/mL (≈ 0.0148 µM).
Molecule `COc1c(N2CC/C(=N/Oc3ccc(F)cc3)C(N)C2)c(F)cc2c(=O)c(C(=O)O)cn(C3CC3)c12` (stereo unspecified) has an MIC of 0.008 µg/mL (≈ 0.016 µM).
`COc1cccc(O/N=C2/CCN(c3c(F)cc4c(=O)c(C(=O)O)cn(C5CC5)c4c3OC)CC2N)c1` (stereo unspecified) was tested, and the MIC was 0.008 µg/mL (≈ 0.0157 µM).
With `COc1ccccc1O/N=C1/CCN(c2c(F)cc3c(=O)c(C(=O)O)cn(C4CC4)c3c2OC)CC1N` (stereo unspecified) the MIC was 0.008 µg/mL (≈ 0.0157 µM).
With `COc1c(N2CC/C(=N/Oc3ccc(Cl)cc3)C(N)C2)c(F)cc2c(=O)c(C(=O)O)cn(C3CC3)c12` (stereo unspecified) the MIC was 0.008 µg/mL (≈ 0.0155 µM).
`COc1cc(OC)cc(O/N=C2/CCN(c3c(F)cc4c(=O)c(C(=O)O)cn(C5CC5)c4c3OC)CC2N)c1` (stereo unspecified) showed an MIC of 0.008 µg/mL (≈ 0.0148 µM).
With `CCc1ccc(O/N=C2/CCN(c3c(F)cc4c(=O)c(C(=O)O)cn(C5CC5)c4c3OC)CC2N)cc1CC` (stereo unspecified) the MIC was 0.008 µg/mL (≈ 0.0149 µM).
